# Experimental data taken from paper PMC3581553, “New Approaches of PARP-1 Inhibitors in Human Lung Cancer Cells and Cancer Stem-Like Cells by Some Selected Anthraquinone-Derived Small Molecules” (PLoS ONE, 2013).
# Where two headings read alike, the source gives them in different places.
# Legend:
# A549/ATCC = test: NCI-60 drug screen (SRB), NSCLC line A549/ATCC; assay type: cell-based, human; details: for LC50 (concentration killing 50% of cells) / GI50: Homo sapiens
# Description: (§1) As a primary screening, seven selected compounds were submitted to the National Cancer Institute (NCI) cell lines screen for evaluation of their anticancer activity. From the data analysis, it follows that approximately 95% of the actives from the 60 cell lines screen can be identified. The detailed methods used for the 60 cell lines panel have been described elsewhere [54]–[59]. Briefly, cellular protein levels were determined after 48 hours of drug exposure by SRB colorimetry. Through the use of a time zero cell control, the cell growth can be determined for each cell line thus allowing calculations of GI50, TGI, and LC50. Comparison to plates not exposed to drug permits determination of concentration and times of exposure conferring GI50, TGI, and LC50. […] By these criteria, seven compounds reported from our compounds bank were all active and passed on for evaluation in the full panel of 60 human tumor cell lines. The panel is organized into nine subpanels representing diverse histology: leukemia, melanoma, and cancers of the lung, colon, kidney, ovary, breast, prostate, and central nervous system.
# HOP-62 = test: NCI-60 drug screen (SRB), NSCLC line HOP-62; assay type: cell-based, human; details: for GI50 / CC50: Homo sapiens; for CC50: read-out: LC50 (the source's name)
# Description: as §1
# HOP-92 = test: NCI-60 drug screen (SRB), NSCLC line HOP-92; assay type: cell-based, human; details: for GI50 / CC50: Homo sapiens; for CC50: read-out: LC50 (the source's name)
# Description: as §1
# NCI-H226 = test: NCI-60 drug screen (SRB), NSCLC line NCI-H226; assay type: cell-based, human; details: for GI50 / CC50: Homo sapiens; for CC50: read-out: LC50 (the source's name)
# Description: as §1
# NCI-H322M = test: NCI-60 drug screen (SRB), NSCLC line NCI-H322M; assay type: cell-based, human; details: for LC50 / GI50: Homo sapiens
# Description: as §1
# NCI-H460 = test: NCI-60 drug screen (SRB), NSCLC line NCI-H460; assay type: cell-based, human; details: for LC50 (concentration killing 50% of cells) / GI50: Homo sapiens
# Description: as §1
# NCI-H522 = test: NCI-60 drug screen (SRB), NSCLC line NCI-H522; assay type: cell-based, human; details: for GI50 / CC50: Homo sapiens; for CC50: read-out: LC50 (the source's name)
# Description: as §1
# A549 cells = test: MTT cytotoxicity assay, A549 cells; assay type: cell-based; details: Homo sapiens, 48 h of drug exposure
# Description: Non-small cell lung cancer cells A549 and Oct-4- and Nanog-overexpressed A549 clone (clone #3; A3), presented the properties of cancer stem-like cells, as well as epithelial-mesenchymal transdifferentiation, according to our previous study. They were grown in the same conditions as RPMI 1640 media supplemented with 10% fetal bovine serum (FBS), 100 units/mL penicillin, […] streptomycin, 1 mM sodium pyruvate, 2 mM l-glutamine and 1% non-essential amino acid (NEAA) in a humidified atmosphere with 5% CO2 at 37°C. Normal fibroblast cells HEL299 from American Type Culture Collection (ATCC) were grown in MEM media supplemented with 10% FBS, 100 units/mL penicillin, […] streptomycin, 1 mM sodium pyruvate, 2 mM l-glutamine and 1% NEAA, in a humidified atmosphere with 5% CO2 at 37°C.
# The tetrazolium reagent (MTT; 3-(4,5-dimethylthiazol-2-yl)-2,5-diphenyl-tetrazolium bromide, USB) was designed to yield a colored formazan upon metabolic reduction by viable cells, [61]. Approximately 5×10^4 cells were plated onto each well of a 24-well plate and incubated in 5% CO2 at 37°C for 24 hours. To assess the in vitro cytotoxicity, each compound was dissolved in DMSO and prepared immediately before the experiments and then was diluted into the complete medium before being added to cell cultures. Test compounds were then added to the culture medium in various designated concentrations. After 48 hours, an amount of 100 µl of MTT was added to each well, and the samples were incubated at 37°C for 2 h. 100 µl DMSO was added to each well. The absorbency at 560 nm and reference absorbency at 670 nm were measured using an ELISA reader.
# NCI-60 cancer cell lines = test: NCI-60 panel of human tumor cell lines, median GI50; assay type: cell-based; details: median over NCI-60 cancer cell lines, read-out: median 50% growth inhibitory concentration (GI50)
# Description: as §1
# A3 clone = test: Sphere formation and cell viability assay in A3 clone; assay type: cell-based, human; details: treated A3 clone; for sphere formation: serum free medium with bFGF and EGF (10 ng/ml)
# [1] = test system: PARP-1 mRNA expression in A3 cells; test: Quantitative RT-PCR of PARP-1 in treated A3 cells; assay type: cell-based, human
# Description: RNA was isolated from cells with the TRIzol (Invitrogen) reagent […], and this was followed by RNA clean up with the RNeasy Minikit (QIAGEN). cDNA was produced with the First Strand cDNA Synthesis Kit (Roche). Real-time quantitative PCR reactions were set up in triplicate with the Brilliant II SYBR Green QPCR Master Mix (Stratagene) and run on an Mx3000P QPCR System (Stratagene).
# [2] = 48 hours drug exposure, SRB, read-out: GI50
# [3] = NCI in vitro 60-cell lines Drug Screen, read-out: -Log GI50 (converted)
SMILES,"TGI (A549/ATCC; 48 hours drug exposure, SRB)",GI50 (A549/ATCC; [2]),GI50 (A549/ATCC; [3]),"TGI (HOP-62; 48 hours drug exposure, SRB)",GI50 (HOP-62; [2]),"CC50 (HOP-62; 48 hours drug exposure, SRB)",GI50 (HOP-62; [3]),"TGI (NCI-H226; 48 hours drug exposure, SRB)",GI50 (NCI-H226; [2]),"CC50 (NCI-H226; 48 hours drug exposure, SRB)",GI50 (NCI-H226; [3]),GI50 (NCI-H322M; [2]),GI50 (NCI-H322M; [3]),"TGI (NCI-H460; 48 hours drug exposure, SRB)",GI50 (NCI-H460; [2]),GI50 (NCI-H460; [3]),"TGI (NCI-H522; 48 hours drug exposure, SRB)",GI50 (NCI-H522; [2]),GI50 (NCI-H522; [3]),IC50 (A549 cells),other results
CN(C)CC(=O)Nc1ccc2c(c1)C(=O)c1cc(NC(=O)CN(C)C)ccc1C2=O [NSC746364],4.43 µM,1.45 µM,1.45 µM,20.5 µM,4.56 µM,60.8 µM,4.57 µM,32.4 µM,15.5 µM,67.4 µM,15.5 µM,1.86 µM,1.86 µM,3.35 µM,1.37 µM,1.38 µM,13.1 µM,1.27 µM,1.26 µM,4.49 µM,"LC50 (concentration killing 50% of cells) (A549/ATCC; 48 hours drug exposure, SRB): > 100 µM; TGI (HOP-92; 48 hours drug exposure, SRB): 31.7 µM; GI50 (HOP-92; [2]): 10.4 µM; CC50 (HOP-92; 48 hours drug exposure, SRB): 96.6 µM; GI50 (HOP-92; [3]): 10.5 µM; TGI (NCI-H322M; 48 hours drug exposure, SRB): 4.91 µM; LC50 (NCI-H322M; 48 hours drug exposure, SRB): 83.1 µM; LC50 (concentration killing 50% of cells) (NCI-H460; 48 hours drug exposure, SRB): 8.2 µM; CC50 (NCI-H522; 48 hours drug exposure, SRB): 66.4 µM"
CN(C)CCCSc1nc2ccc3c(c2[nH]1)C(=O)c1ccccc1C3=O [NSC747854],12.6 µM,3.26 µM,3.24 µM,32.3 µM,5.9 µM,48.9 µM,5.89 µM,22.1 µM,3.74 µM,58.7 µM,3.72 µM,0.72 µM,0.724 µM,12.8 µM,2.13 µM,2.14 µM,24.9 µM,1.22 µM,12.3 µM,12.2 µM,"TGI (NCI-H322M; 48 hours drug exposure, SRB): 20.6 µM; CC50 (NCI-H522; 48 hours drug exposure, SRB): 50 µM; GI50 (NCI-60 cancer cell lines): 6.92 µM; cell growth / cell viability (A3 clone): inhibit the cell growth; sphere formation (A3 clone): effectively block the sphere formation; expression levels of PARP-1 (mRNA) [1]: inhibit the expression levels of PARP-1"
Cc1ccc(C(=O)Nc2c(NC(=O)CCl)ccc3c2C(=O)c2ccccc2C3=O)cc1 [NSC749232],29.2 µM,12.3 µM,12.3 µM,9.49 µM,2.97 µM,24.4 µM,2.95 µM,20.8 µM,8.81 µM,49.1 µM,8.91 µM,3.76 µM,3.8 µM,14.1 µM,5.81 µM,5.75 µM,2.03 µM,8.95 µM,0.891 µM,6.62 µM,"LC50 (concentration killing 50% of cells) (A549/ATCC; 48 hours drug exposure, SRB): > 100 µM; TGI (HOP-92; 48 hours drug exposure, SRB): 31.7 µM; GI50 (HOP-92; [2]): 9.73 µM; CC50 (HOP-92; 48 hours drug exposure, SRB): > 100 µM; GI50 (HOP-92; [3]): 9.77 µM; TGI (NCI-H322M; 48 hours drug exposure, SRB): 13.7 µM; LC50 (NCI-H322M; 48 hours drug exposure, SRB): 45.4 µM; LC50 (concentration killing 50% of cells) (NCI-H460; 48 hours drug exposure, SRB): 34.1 µM; cell growth / cell viability (A3 clone): inhibit the cell growth; sphere formation (A3 clone): effectively block the sphere formation; expression levels of PARP-1 (mRNA) [1]: inhibit the expression levels of PARP-1"
CCN(CC)CCC(=O)Nc1ccc2c(c1)C(=O)c1cc(NC(=O)CCN(CC)CC)ccc1C2=O [NSC746365],3.95 µM,1.44 µM,1.45 µM,5.80 µM,1.73 µM,24 µM,1.74 µM,20.3 µM,6.56 µM,45.9 µM,6.61 µM,2.85 µM,2.82 µM,4.85 µM,1.9 µM,1.91 µM,4.59 µM,1.4 µM,1.38 µM,7.66 µM,"LC50 (concentration killing 50% of cells) (A549/ATCC; 48 hours drug exposure, SRB): 15.5 µM; TGI (HOP-92; 48 hours drug exposure, SRB): 0.06 µM; GI50 (HOP-92; [2]): 0.01 µM; CC50 (HOP-92; 48 hours drug exposure, SRB): 3.48 µM; GI50 (HOP-92; [3]): 0.0148 µM; LC50 (NCI-H322M; 48 hours drug exposure, SRB): 4.71 µM; LC50 (concentration killing 50% of cells) (NCI-H460; 48 hours drug exposure, SRB): > 100 µM; CC50 (NCI-H522; 48 hours drug exposure, SRB): 19.3 µM"
CN1CCN(Cc2nc3ccc4c(c3[nH]2)C(=O)c2ccccc2C4=O)CC1 [NSC749235],24.3 µM,7.58 µM,7.59 µM,30.5 µM,19.4 µM,95.4 µM,9.33 µM,31.1 µM,8.32 µM,> 100 µM,8.32 µM,8.7 µM,8.71 µM,15.2 µM,3.79 µM,3.8 µM,29.0 µM,13.8 µM,13.8 µM,10.6 µM,"LC50 (concentration killing 50% of cells) (A549/ATCC; 48 hours drug exposure, SRB): 67.2 µM; TGI (HOP-92; 48 hours drug exposure, SRB): 91.8 µM; GI50 (HOP-92; [2]): 7.97 µM; CC50 (HOP-92; 48 hours drug exposure, SRB): > 100 µM; GI50 (HOP-92; [3]): 7.94 µM; TGI (NCI-H322M; 48 hours drug exposure, SRB): 43.3 µM; LC50 (NCI-H322M; 48 hours drug exposure, SRB): > 100 µM; LC50 (concentration killing 50% of cells) (NCI-H460; 48 hours drug exposure, SRB): 45.1 µM; CC50 (NCI-H522; 48 hours drug exposure, SRB): 61 µM; cell growth / cell viability (A3 clone): inhibit the cell growth; sphere formation (A3 clone): effectively block the sphere formation; expression levels of PARP-1 (mRNA) [1]: inhibit the expression levels of PARP-1"
O=C(CCN1CCCC1)Nc1ccc2c(c1)C(=O)c1cc(NC(=O)CCN3CCCC3)ccc1C2=O [NSC746366],12.7 µM,2.2 µM,2.19 µM,11.6 µM,2.48 µM,45.4 µM,2.51 µM,12.6 µM,2.72 µM,58.3 µM,2.69 µM,1.81 µM,1.82 µM,>100 µM,2.69 µM,2.69 µM,17.1 µM,3.41 µM,3.39 µM,7.76 µM,"LC50 (concentration killing 50% of cells) (A549/ATCC; 48 hours drug exposure, SRB): 74.7 µM; TGI (HOP-92; 48 hours drug exposure, SRB): 0.82 µM; GI50 (HOP-92; [2]): 0.45 µM; CC50 (HOP-92; 48 hours drug exposure, SRB): 34.6 µM; GI50 (HOP-92; [3]): 0.447 µM; TGI (NCI-H322M; 48 hours drug exposure, SRB): 10.9 µM; LC50 (NCI-H322M; 48 hours drug exposure, SRB): 42 µM; LC50 (concentration killing 50% of cells) (NCI-H460; 48 hours drug exposure, SRB): > 100 µM; CC50 (NCI-H522; 48 hours drug exposure, SRB): > 100 µM"
